Assay results published in PMC6587462 (Journal of Clinical Pharmacology, 2018).
Entries after “also recorded” stand apart in the source; their conditions may differ. Like-named read-outs stand apart in the source and are kept apart here.

Assays:
[1] = biological target: T1, 5‐HT3 receptor (Homo sapiens, UniProt P46098); settings: Helsinn, data on file
T1 sequence (P46098 24-478): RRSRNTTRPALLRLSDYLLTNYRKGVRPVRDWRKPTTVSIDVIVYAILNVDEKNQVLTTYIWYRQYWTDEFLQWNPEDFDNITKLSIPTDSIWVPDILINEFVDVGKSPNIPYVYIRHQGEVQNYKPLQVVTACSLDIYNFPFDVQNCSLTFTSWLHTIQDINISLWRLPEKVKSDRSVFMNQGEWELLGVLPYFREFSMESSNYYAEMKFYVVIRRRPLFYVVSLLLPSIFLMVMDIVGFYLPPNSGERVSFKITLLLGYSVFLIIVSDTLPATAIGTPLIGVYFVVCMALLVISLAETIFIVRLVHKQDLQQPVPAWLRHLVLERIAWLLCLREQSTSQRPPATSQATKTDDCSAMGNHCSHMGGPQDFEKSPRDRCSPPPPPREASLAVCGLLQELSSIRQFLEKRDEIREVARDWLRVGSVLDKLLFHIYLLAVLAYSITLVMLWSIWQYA

[2] = after both IV and oral administration; cited from earlier work
[3] = cited from earlier work
[4] = Study 12 PK/safety and DDI study in cancer patients; format: in vivo; settings: human, plasma, oral
[5] = calculated logP; cited from earlier work
[6] = test system: plasma proteins; assay: Binding to plasma proteins; format: in vitro ADME
[7] = Binding to plasma proteins; format: in vitro ADME; settings: human, plasma
[8] = Biopharmaceutics Classification System class and solubility in water; format: physicochemical
[9] = cited from earlier work; remark: listed apart in the source
[10] = set-up: species or system human; settings: estimated from t1/2
[11] = cited from earlier work; for AUCinf / CL/F / Cmax / Tmax / Vz/F / t1/2: Study 8, healthy volunteers (22), NEPA FDC, mean (CV%)
[12] = clinical; settings: human, in vivo, po
[13] = Study 11 population PK/pharmacodynamic study in cancer patients; format: in vivo, human; settings: population PK modeling in patients
[14] = biological target: NK1 receptor (Homo sapiens, UniProt P25103); settings: NG108-15 cells; netupitant and palonosetron combined; cited from earlier work
[15] = palonosetron; cited from earlier work
[16] = clinical; settings: human, in vivo
[17] = Study 9 replicate crossover bioequivalence study; format: in vivo, human
[18] = Apical-to-basolateral permeability in MDCK II monolayer; format: in vitro ADME, canine; settings: dog
[19] = test system: NG108‐15 cells; settings: netupitant and palonosetron combined; cited from earlier work
[20] = test system: CYP450 isoforms; settings: palonosetron; cited from earlier work
[21] = Study 11 population PK, patients (117), NEPA FDC, cited from earlier work
[22] = absorption, binding, metabolic, or excretory level; cited from earlier work
[23] = Study 5 bioequivalence study, PK after single oral NEPA; format: in vivo, human
[24] = Oral NEPA PK in cancer patients, summary across studies; format: in vivo; settings: human, plasma
[25] = Study 4 pilot bioequivalence study, PK after single oral NEPA; format: in vivo; settings: human, plasma
[26] = cited from earlier work; remark: listed apart in the source
[27] = biological target: P‐glycoprotein (P‐gp) efflux transporter (Homo sapiens, UniProt P08183); settings: in vitro, cited from earlier work
[28] = Absolute / oral bioavailability; format: in vivo; settings: human, plasma, po

Sequence of P‐glycoprotein (P‐gp) efflux transporter (P08183 whole entry): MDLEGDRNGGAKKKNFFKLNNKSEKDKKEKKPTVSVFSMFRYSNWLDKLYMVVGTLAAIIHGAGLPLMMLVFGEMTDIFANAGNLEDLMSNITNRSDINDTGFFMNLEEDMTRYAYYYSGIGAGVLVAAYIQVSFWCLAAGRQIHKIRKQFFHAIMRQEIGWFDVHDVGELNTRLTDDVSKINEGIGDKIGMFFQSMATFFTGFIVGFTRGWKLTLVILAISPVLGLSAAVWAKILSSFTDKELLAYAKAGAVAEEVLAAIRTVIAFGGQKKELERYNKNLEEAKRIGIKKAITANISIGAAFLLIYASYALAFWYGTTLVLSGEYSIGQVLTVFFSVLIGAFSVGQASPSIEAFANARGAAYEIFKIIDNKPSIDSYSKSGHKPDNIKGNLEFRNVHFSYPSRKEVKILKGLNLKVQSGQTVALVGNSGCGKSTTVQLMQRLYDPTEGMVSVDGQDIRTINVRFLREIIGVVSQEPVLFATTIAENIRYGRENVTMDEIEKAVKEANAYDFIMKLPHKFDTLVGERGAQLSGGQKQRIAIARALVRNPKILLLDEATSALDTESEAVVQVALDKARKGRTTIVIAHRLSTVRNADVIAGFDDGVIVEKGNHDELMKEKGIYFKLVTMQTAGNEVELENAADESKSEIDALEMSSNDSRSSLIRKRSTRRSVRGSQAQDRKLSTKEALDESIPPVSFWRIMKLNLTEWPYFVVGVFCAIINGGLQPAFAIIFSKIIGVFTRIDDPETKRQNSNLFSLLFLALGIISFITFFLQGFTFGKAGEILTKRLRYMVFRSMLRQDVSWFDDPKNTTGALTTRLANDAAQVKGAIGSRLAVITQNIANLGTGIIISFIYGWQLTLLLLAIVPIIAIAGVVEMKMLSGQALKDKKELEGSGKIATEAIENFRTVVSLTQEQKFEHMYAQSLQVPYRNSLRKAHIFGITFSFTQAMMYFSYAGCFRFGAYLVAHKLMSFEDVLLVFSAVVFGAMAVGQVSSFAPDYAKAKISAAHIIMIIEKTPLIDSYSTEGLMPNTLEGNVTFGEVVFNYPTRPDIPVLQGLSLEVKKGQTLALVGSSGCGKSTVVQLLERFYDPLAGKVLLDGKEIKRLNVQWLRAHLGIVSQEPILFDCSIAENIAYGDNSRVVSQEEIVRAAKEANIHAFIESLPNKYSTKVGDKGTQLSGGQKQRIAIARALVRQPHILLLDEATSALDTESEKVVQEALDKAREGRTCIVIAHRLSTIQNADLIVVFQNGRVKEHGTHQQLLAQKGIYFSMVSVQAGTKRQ
Sequence of NK1 receptor (P25103 whole entry, species assumed): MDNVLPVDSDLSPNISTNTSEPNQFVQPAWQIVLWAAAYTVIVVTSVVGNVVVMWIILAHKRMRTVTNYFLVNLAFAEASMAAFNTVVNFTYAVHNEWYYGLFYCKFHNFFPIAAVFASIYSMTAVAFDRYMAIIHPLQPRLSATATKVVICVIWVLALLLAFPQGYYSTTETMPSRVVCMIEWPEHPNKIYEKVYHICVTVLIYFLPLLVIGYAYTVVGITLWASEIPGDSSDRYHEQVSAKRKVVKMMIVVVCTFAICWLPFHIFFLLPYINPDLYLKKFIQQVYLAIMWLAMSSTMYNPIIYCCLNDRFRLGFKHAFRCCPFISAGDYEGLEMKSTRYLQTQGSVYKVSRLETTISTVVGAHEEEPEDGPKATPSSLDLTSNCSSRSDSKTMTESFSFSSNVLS

SMILES: O=C1c2cccc3c2[C@H](CC[C@@H]3O)CN1[C@@H]1CN2CCC1CC2 [6‐S‐hydroxy‐palonosetron]
- 5-HT3 receptor antagonist activity relative to palonosetron [1]: < 1%

SMILES: O=C1c2cccc3c2[C@H](CCC3)CN1[C@@H]1C[N+]2([O-])CCC1CC2 [M9, N‐oxide‐palonosetron]
- fraction of administered palonosetron dose found in urine [2]: approximately 13%
- 5-HT3 receptor antagonist activity relative to palonosetron [1]: < 1%

SMILES: C[C@@H](O[C@H]1OCCN(Cc2nc(O)n(P(=O)(O)O)n2)[C@H]1c1ccc(F)cc1)c1cc(C(F)(F)F)cc(C(F)(F)F)c1 [fosaprepitant]
- adverse reactions on intravenous administration [3]: injection‐site reactions

SMILES: O=C1c2cccc3c2[C@H](CCC3)CN1[C@@H]1CN2CCC1CC2 [palonosetron]
- Vd/F [4]: 633 to 679 L
- octanol-water partition coefficient (logP) [5]: 2.72
- binding to plasma proteins [6]: 62%
- fraction unbound [7]: 0.38
- CL/F (Healthy volunteers, Min-Max of study means, single oral NEPA): 9.6 to 17.9 L/h
- plasma concentration as fraction of mean Cmax (at 3 hours after oral NEPA): approximately 80%
- Biopharmaceutics Classification System class [8]: 1
- effect of coadministration of metoclopramide or aprepitant on pharmacokinetics [9]: did not alter
- fraction from previous NEPA administration eliminated at next dose ([10]; chemotherapy every 2 weeks): more than 99%
- fraction from previous NEPA administration eliminated at next dose ([10]; chemotherapy every 3 weeks): 100%
- AUCinf ([11]; fasted): 33.645 (26.7) ng ⋅ h/mL
- CL/F ([11]; fasted): 17.9 (34.1) L/h
- Cmax ([11]; fasted): 0.786 (28.4) ng/mL
- Tmax ([11]; fasted): 4.34 (19.6) h
- Vz/F ([11]; fasted): 905 (20.7) L
- t1/2 ([11]; fasted): 36.9 (23.6) h
- AUCinf ([11]; fed): 33.199 (20.9) ng ⋅ h/mL
- CL/F ([11]; fed): 17.8 (28.0) L/h
- Cmax ([11]; fed): 0.768 (20.7) ng/mL
- Tmax ([11]; fed): 4.96 (24.3) h
- Vz/F ([11]; fed): 962 (24.5) L
- t1/2 ([11]; fed): 38.9 (29.1) h
- AUCinf and Cmax under fed (high-fat breakfast) vs fasting conditions ([11]; open, randomized, 2-way crossover study in healthy volunteers): similar
- fraction of administered palonosetron dose found in urine [2]: approximately 40%
- AUC(0-inf) [12]: 33.2 to 56.7 ng·h/mL
- Cmax [12]: 0.768 to 1.53 ng/mL
- Tmax [12]: 3.76 to 4.96 h
- Vd/F [12]: 575 to 962 L
- half-life [12]: 36.9 to 48.3 h
- absorption lag time [13]: 0.79 h
- absorption rate constant [13]: 2.66 h⁻¹
- combined effect on triggering NK1 receptor internalization [14]: additive effects
- solubility in water [15]: freely soluble
- CL renal [16]: 89.8 mL/min
- CL/F ([17]; Study 9, healthy volunteers (82), NEPA FDC commercial product, mean (CV%)): 11.1 (27.6) L/h
- AUC(0-inf) ([17]; human, plasma, oral): 48.2 ng·h/mL
- Cmax ([17]; human, plasma, oral): 1.27 ng/mL
- Tmax ([17]; human, plasma, oral): 3.76 h
- Vd/F ([17]; human, plasma, oral): 575 L
- half-life ([17]; human, plasma, oral): 37.2 h
- Papp A→B at 0.5 μM [18]: 16 ×10⁻⁶ cm/s
- Papp A→B at 50 μM [18]: 65 ×10⁻⁶ cm/s
- combined effect on inhibition of substance P-mediated response [19]: synergistic effects
- CYP isoforms mediating metabolism [20]: primarily metabolized by CYP2D6 and to a lesser extent by CYP3A4 and CYP1A2
- AUCinf ([21]; mean (CV%)): 68.611 (33.4) ng ⋅ h/mL
- Cmax ([21]; mean (CV%)): 1.378 (28.3) ng/mL
- Tmax ([21]; mean (CV%)): 3.01 (66.4) h
- CL/F ([21]; value (%RSE)): 7.6 (%RSE = 3.64) L/h
- PK interaction between netupitant and palonosetron [22]: no relevant PK interactions
- CL/F ([23]; Study 5, healthy volunteers (47), single oral NEPA FDC, mean (CV%)): 9.6 (28.3) L/h
- AUC(0-inf) ([23]; human, plasma, po): 56.7 ng·h/mL
- Cmax ([23]; human, plasma, po): 1.53 ng/mL
- Tmax ([23]; human, plasma, po): 4.68 h
- Vd/F ([23]; human, plasma, po): 586 L
- half-life ([23]; human, plasma, po): 44.2 h
- AUC(0-inf) [24]: 48.1 to 85.6 ng·h/mL
- Cmax [24]: 0.85 to 1.38 ng/mL
- Tmax [24]: 3.01 to 5.33 h
- Vd/F [24]: 483 to 679 L
- Tmax [25]: 4.19 h
- Vd/F [25]: 658 L
- half-life [25]: 42.1 h
- t1/2 ([26]; cancer patients, intravenous single dose): 49.8 h
- t1/2 ([26]; healthy subjects, intravenous single dose): 37.4 h
- substrate of P-gp (MDR1/P-gp) efflux transporter [27]: P‐gp substrate
- inhibitor of P-gp efflux transporter ([27]; parent drugs): not an inhibitor; also recorded: not a P‐gp inhibitor
- bioavailability [28]: ~100%

SMILES: C[C@@H](OC[C@@]1(c2ccccc2)CC[C@]2(CCC(=O)N2)CN1)c1cc(C(F)(F)F)cc(C(F)(F)F)c1 [rolapitant]
- adverse reactions on intravenous administration [3]: injection‐site reactions
- t1/2 [26]: approximately 180 hours
